According to US20240368219A1, “ACTIVATION OF E6AP/UBE3A-MEDIATED PROTEIN UBIQ[…] D[…] BY A CYCLIC GAMMA-AA PEPTIDE” (University of South Florida, priority 2022, published 2024):
Several values for one entry are separate records, joined by “and”; a condition that tells them apart may be missing. Identical values can stand only once.

Columns and labels:
HECT domain of E6AP = molecular target: T1, HECT domain of E6AP (Homo sapiens, UniProt Q05086); experiment: Fluorescence polarization binding affinity of FITC-labeled peptides with the E6AP HECT domain; conditions: Kd of the peptide-HECT complex
T1 construct: serial dilution of E6AP HECT domain; inferred from pET28a vector and Ni-NTA purification; made in house; host or cells: E. coli BL21 (DE3) pLysS, plasmid pET28a-E6AP HECT
T1 sequence (Q05086 518-875 limits assumed): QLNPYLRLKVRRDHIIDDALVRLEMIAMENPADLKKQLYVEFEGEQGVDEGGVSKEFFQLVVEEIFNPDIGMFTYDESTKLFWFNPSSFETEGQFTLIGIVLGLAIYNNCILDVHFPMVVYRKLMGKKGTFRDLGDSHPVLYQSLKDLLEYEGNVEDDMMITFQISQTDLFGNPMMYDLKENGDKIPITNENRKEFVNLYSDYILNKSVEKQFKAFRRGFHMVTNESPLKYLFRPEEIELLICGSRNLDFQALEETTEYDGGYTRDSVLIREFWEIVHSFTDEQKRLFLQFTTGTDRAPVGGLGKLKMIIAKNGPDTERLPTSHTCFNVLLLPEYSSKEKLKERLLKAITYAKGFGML
Description: The library was screened based on the binding between the bead-anchored peptides with the HECT domain of E6AP with an N-terminal Flag tag that was recognized by an anti-Flag antibody labeled with AlexaFluor 488 that would emit green fluorescence. […] The peptide ligands from the screen were named P1-8 and they were resynthesized to measure their individual binding affinities with the HECT domain by fluorescence polarization (FP).
The binding affinity (Kd) of the peptides were measured by fluorescence polarization. Briefly, a constant amount of the 100 nM FITC-labeled cyclic peptide was incubated with a serial dilution of E6AP HECT domain. The Kd values was calculated using the following equation, in which the Lst and x refer to the concentration of peptide and protein, respectively.

pronase = experiment: Enzymatic stability study with pronase (HPLC, MS); format: in vitro ADME; conditions: 0.1 mg/mL pronase, 37° C., 24 h
Description: (§1) A distinctive characteristic of γ-AA peptides compared with canonical peptides is their remarkable resistance to protease. To assay the stability of P6 in presence of protease, P6 was incubated with 0.1 mg/mL pronase at 37° C. for 24 h.
0.01 mg/mL P6 was incubated with 0.1 mg/mL pronase in 100 mM ammonium bicarbonate buffer (pH 7.8) at 37° C. for 24 h. The reaction mixture was concentrated in a speed vacuum to remove the water and ammonium bicarbonate. The remains were dissolved in 100 μL H2O/CH3CN and analyzed by a Waters analytical HPLC system with a 1 mL/min flow rate and 5-100% linear gradient of solvent B (0.1% TFA in acetonitrile) in A (0.1% TFA in water) over the duration of 50 min. The UV detector was set to 215 nm.

[1] = Serum stability assay (25% serum, HPLC); format: in vitro ADME, human; conditions: 25% serum (v/v), 37° C., 24 h
Description: as §1
The serum stabilities of peptides were determined in 25% (v/v) aqueous pooled serum from human male AB plasma (Sigma-Aldrich, Milan, Italy). 1 mg P6 was dissolved in 50 μL CH3CN/H2O (70:30, v/v) and then diluted in serum and incubated at 37° C. for 24 h. Then, 100 μL of solution was added to 100 μL of CH3CN on ice for 15 min and was centrifuged at 4° C. for 10 min. The supernatant was then analyzed by a Waters analytical HPLC system with a 1 mL/min flow rate and 5-100% linear gradient of solvent B (0.1% TFA in acetonitrile) in A (0.1% TFA in water) over the duration of 50 min. The UV detector was set to 215 nm.

Structure (SMILES) | Kd (HECT domain of E6AP) | stability in presence of protease (pronase) | stability in human serum [1]
CC(C)C[C@H]1CN(CC(N)=O)C(=O)CCSCc2ccc(cc2)C(=O)N[C@@H](C)CN(C(=O)Cc2ccc3ccccc3c2)CC(=O)N[C@@H](CC(C)C)CN(C(=O)CCc2ccccc2)CC(=O)N[C@@H](Cc2ccccc2)CN(C(=O)Cc2ccc3c(c2)OCO3)CC(=O)N1 [P3] | 80 to 218 nM | – | –
CC(C)C[C@H]1CN(CC(N)=O)C(=O)CCSCc2ccc(cc2)C(=O)N[C@@H](Cc2ccccc2)CN(C(=O)Cc2ccc3ccccc3c2)CC(=O)N[C@@H](CC(C)C)CN(C(=O)CCC2CCCCC2)CC(=O)N[C@@H](Cc2ccccc2)CN(C(=O)Cc2ccc3c(c2)OCO3)CC(=O)N1 [P4] | 80 to 218 nM | – | –
COc1cc(CC(=O)N2CC(=O)N[C@@H](Cc3ccccc3)CN(C(=O)CC3CC3)CC(=O)N[C@@H](CC(C)C)CN(CC(N)=O)C(=O)CCSCc3ccc(cc3)C(=O)N[C@@H](CCC(=O)O)CN(C(=O)Cc3ccc4c(c3)OCO4)CC(=O)N[C@@H](CC(C)C)C2)cc(OC)c1 [P5] | 80 to 218 nM | – | –
COc1cc(CC(=O)N2CC(=O)N[C@@H](Cc3ccccc3)CN(C(=O)CC3CC3)CC(=O)N[C@@H](CC(C)C)CN(CC(N)=O)C(=O)CCSCc3ccc(cc3)C(=O)N[C@@H](CCCCN)CN(C(=O)Cc3ccc4ccccc4c3)CC(=O)N[C@@H](CC(C)C)C2)cc(OC)c1 [P6] | 80 to 218 nM and 218 nM | resistant to protease cleavage | stability was confirmed
COc1cc(CC(=O)N2CC(=O)N[C@@H](C)CN(C(=O)Cc3cc(OC)cc(OC)c3)CC(=O)N[C@@H](CC(C)C)CN(CC(N)=O)C(=O)CCSCc3ccc(cc3)C(=O)N[C@@H](Cc3ccccc3)CN(C(=O)Cc3ccc4c(c3)OCO4)CC(=O)N[C@@H](Cc3ccccc3)C2)cc(OC)c1 [P7] | 80 to 218 nM | – | –
C[C@H]1CN(C(=O)Cc2ccc3c(c2)OCO3)CC(=O)N[C@@H](Cc2ccccc2)CN(C(=O)Cc2ccc3ccccc3c2)CC(=O)N[C@@H](CCC(=O)O)CN(C(=O)CC2CC2)CC(=O)N[C@@H](Cc2ccccc2)CN(CC(N)=O)C(=O)CCSCc2ccc(cc2)C(=O)N1 [P8] | 80 to 218 nM | – | –
